In patent publication US8895733B2 (Novartis AG, priority 2010, dated 2014):

molecular target: T1, Nav 1.7 (Homo sapiens, UniProt Q15858); test: Whole-cell voltage clamp electrophysiology, automated patch clamp (marker c in Table of Examples); format: cell-based; settings: marker c = Automated patch clamp data; read-out: Nav 1.7 activity
T1 construct: expressed in transfected cells
Procedure, shortened: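 Human NaV1.7 currents were recorded by whole-cell automated patch clamp, on IonWorks Quattro or another automated platform, typically in perforated-patch configuration. The stimulus protocol was designed to probe block mainly of the inactivated state, with a typical sweep stepping from about −65 mV holding to −10 mV, then −100 mV.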

T1 sequence (Q15858 whole entry): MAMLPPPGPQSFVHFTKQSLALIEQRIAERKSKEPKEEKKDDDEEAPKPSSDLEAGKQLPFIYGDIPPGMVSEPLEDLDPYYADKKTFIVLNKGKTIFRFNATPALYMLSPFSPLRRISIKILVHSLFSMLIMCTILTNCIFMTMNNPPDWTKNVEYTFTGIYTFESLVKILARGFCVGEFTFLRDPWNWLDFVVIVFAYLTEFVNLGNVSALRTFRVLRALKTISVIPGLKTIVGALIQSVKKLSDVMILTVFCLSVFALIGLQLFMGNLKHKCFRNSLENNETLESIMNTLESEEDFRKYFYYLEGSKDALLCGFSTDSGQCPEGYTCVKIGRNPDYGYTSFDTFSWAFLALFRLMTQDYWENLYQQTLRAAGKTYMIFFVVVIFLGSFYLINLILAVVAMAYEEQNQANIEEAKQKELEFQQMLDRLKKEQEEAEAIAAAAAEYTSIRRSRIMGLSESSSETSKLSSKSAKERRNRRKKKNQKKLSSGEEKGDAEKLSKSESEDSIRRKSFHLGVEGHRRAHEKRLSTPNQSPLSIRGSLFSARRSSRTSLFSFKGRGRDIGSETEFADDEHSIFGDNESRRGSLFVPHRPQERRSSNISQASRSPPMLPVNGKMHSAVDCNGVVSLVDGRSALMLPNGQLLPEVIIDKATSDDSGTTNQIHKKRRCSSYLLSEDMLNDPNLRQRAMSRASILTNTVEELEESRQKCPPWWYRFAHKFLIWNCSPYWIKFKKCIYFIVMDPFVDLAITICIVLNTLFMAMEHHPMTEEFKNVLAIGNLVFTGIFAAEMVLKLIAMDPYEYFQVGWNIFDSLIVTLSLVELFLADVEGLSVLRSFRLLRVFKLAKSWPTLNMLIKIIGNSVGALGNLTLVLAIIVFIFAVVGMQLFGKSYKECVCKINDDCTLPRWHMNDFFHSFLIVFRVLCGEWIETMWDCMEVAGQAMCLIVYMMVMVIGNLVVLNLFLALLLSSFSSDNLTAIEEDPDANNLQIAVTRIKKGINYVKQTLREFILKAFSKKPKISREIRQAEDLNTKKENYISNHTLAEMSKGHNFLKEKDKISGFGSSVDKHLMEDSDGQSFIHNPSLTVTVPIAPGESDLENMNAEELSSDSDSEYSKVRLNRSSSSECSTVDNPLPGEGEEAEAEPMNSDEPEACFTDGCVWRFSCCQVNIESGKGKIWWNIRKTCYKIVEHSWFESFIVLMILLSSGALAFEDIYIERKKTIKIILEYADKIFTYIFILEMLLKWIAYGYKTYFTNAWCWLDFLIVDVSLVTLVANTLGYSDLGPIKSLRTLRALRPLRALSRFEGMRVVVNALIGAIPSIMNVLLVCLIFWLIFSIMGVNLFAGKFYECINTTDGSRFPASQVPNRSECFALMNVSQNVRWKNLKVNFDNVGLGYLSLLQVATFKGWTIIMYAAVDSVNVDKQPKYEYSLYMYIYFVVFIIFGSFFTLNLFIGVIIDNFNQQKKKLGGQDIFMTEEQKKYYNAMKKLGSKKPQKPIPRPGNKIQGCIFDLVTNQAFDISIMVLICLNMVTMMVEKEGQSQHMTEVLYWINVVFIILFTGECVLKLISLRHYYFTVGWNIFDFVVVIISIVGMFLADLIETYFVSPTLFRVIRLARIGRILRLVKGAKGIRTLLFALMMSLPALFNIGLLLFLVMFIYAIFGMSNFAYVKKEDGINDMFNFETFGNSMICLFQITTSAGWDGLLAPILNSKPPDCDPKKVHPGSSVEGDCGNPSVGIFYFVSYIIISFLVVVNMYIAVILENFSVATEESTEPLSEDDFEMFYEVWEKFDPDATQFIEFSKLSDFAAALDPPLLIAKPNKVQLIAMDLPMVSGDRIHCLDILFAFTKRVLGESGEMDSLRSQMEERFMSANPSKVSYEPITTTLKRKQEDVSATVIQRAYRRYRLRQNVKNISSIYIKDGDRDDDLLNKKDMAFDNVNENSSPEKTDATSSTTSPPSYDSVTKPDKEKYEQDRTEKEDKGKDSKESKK

SMILES	IC50
CCCS(=O)(=O)N1CC(c2nc(-c3nc(N)nc(N(C)c4ccccc4)n3)no2)C1 [Example 307, 2-N-methyl-2-N-phenyl-6-{5-[1-(propane-1-sulfonyl)azetidin-3-yl]-1,2,4-oxadiazol-3-yl}-1,3,5-triazine-2,4-diamine]	8050 nM
CN(c1ccccc1)c1nc(N)nc(-c2noc(-c3ccc(NCC(F)(F)F)nc3)n2)n1 [Example 327, 2-N-Methyl-2-N-phenyl-6-(5-{6-[(2,2,2-trifluoroethyl)amino]pyridin-3-yl}-1,2,4-oxadiazol-3-yl)-1,3,5-triazine-2,4-diamine]	1860 nM
Nc1nc(Nc2ccccc2)nc(-c2noc(-c3ccc(CCC(F)(F)F)nc3)n2)n1 [Example 319, 2-N-phenyl-6-{5-[6-(3,3,3-trifluoropropyl)pyridin-3-yl]-1,2,4-oxadiazol-3-yl}-1,3,5-triazine-2,4-diamine]	150 nM
Nc1nc(Nc2cccc(F)c2)nc(-c2noc(C(=O)NC3CCc4ccccc43)n2)n1 (centres unmarked) [Example 226, 3-{4-amino-6-[(3-fluorophenyl)amino]-1,3,5-triazin-2-yl}-N-(2,3-dihydro-1H-inden-1-yl)-1,2,4-oxadiazole-5-carboxamide]	3420 nM
Nc1nc(Nc2ccccc2)nc(-c2noc(N3CCCCC3)n2)n1 [Example 221, 2-N-Phenyl-6-[5-(piperidin-1-yl)-1,2,4-oxadiazol-3-yl]-1,3,5-triazine-2,4-diamine]	729 nM
CC(=O)c1ccc(-c2nc(-c3nc(N)nc(N(C)c4ccccc4)n3)no2)nc1 [Example 296, 1-[6-(3-{4-amino-6-[methyl(phenyl)amino]-1,3,5-triazin-2-yl}-1,2,4-oxadiazol-5-yl)pyridin-3-yl]ethan-1-one]	274 nM
CN(c1ccccc1)c1nc(N)nc(-c2noc(-c3cccc(N4CCOCC4)n3)n2)n1 [Example 270, 2-N-methyl-6-{5-[6-(morpholin-4-yl)pyridin-2-yl]-1,2,4-oxadiazol-3-yl}-2-N-phenyl-1,3,5-triazine-2,4-diamine]	3650 nM
CC(C)Nc1ccc(-c2nc(-c3nc(N)nc(N(C)c4ccccc4)n3)no2)cn1 [Example 332, 2-N-Methyl-2-N-phenyl-6-(5-{6-[(propan-2-yl)amino]pyridin-3-yl}-1,2,4-oxadiazol-3-yl)-1,3,5-triazine-2,4-diamine]	1110 nM
Nc1nc(Nc2cc(Cl)ccc2F)nc(-c2noc(-c3ccccn3)n2)n1 [Example 325, 2-N-(5-chloro-2-fluorophenyl)-6-[5-(pyridin-2-yl)-1,2,4-oxadiazol-3-yl]-1,3,5-triazine-2,4-diamine]	435 nM
CN(c1ccccc1)c1nc(N)nc(-c2noc(-c3ccc(C(=O)NC4CC4)nc3)n2)n1 [Example 287, 5-(3-{4-amino-6-[methyl(phenyl)amino]-1,3,5-triazin-2-yl}-1,2,4-oxadiazol-5-yl)-N-cyclopropylpyridine-2-carboxamide]	1890 nM
CN(c1ccccc1)c1nc(N)nc(-c2noc(-c3ccc(OC4CCC4)nc3)n2)n1 [Example 331, 6-[5-(6-cyclobutoxypyridin-3-yl)-1,2,4-oxadiazol-3-yl]-2-N-methyl-2-N-phenyl-1,3,5-triazine-2,4-diamine]	140 nM

Second part, the compound after the results:

IC50	SMILES
> 6590 nM	CN(c1ccccc1)c1nc(N)nc(-c2noc(-c3ncccc3NCC3CC3)n2)n1 [Example 487, 6-{5-[3-(Cyclopropylmethylamino)-pyridin-2-yl]-[1,2,4]oxadiazol-3-yl}-N-methyl-N-phenyl-[1,3,5]triazine-2,4-diamine]
69 nM	CN(c1nc(N)nc(-c2noc(-c3ncccc3F)n2)n1)c1ccccc1F [Example 475, 2-N-(2-fluorophenyl)-6-[5-(3-fluoropyridin-2-yl)-1,2,4-oxadiazol-3-yl]-2-N-methyl-1,3,5-triazine-2,4-diamine]
6680 nM	CN(c1ccccc1)c1nc(N)nc(-c2noc(C3CCC(NC(=O)CC4CC4)CC3)n2)n1 (centres unmarked) [Example 426, N-[4-(3-{4-amino-6-[methyl(phenyl)amino]-1,3,5-triazin-2-yl}-1,2,4-oxadiazol-5-yl)cyclohexyl]-2-cyclopropylacetamide]
1230 nM	CC(C)CS(=O)(=O)N1CCC(c2nc(-c3nc(N)nc(N(C)c4ccccc4)n3)no2)CC1 [Example 507, 2-N-methyl-6-(5-{1-[(2-methylpropane)sulfonyl]piperidin-4-yl}-1,2,4-oxadiazol-3-yl)-2-N-phenyl-1,3,5-triazine-2,4-diamine]
1130 nM	CN(c1ccccc1)c1nc(N)nc(-c2noc(N3C[C@@H]4[C@@H](COCCC(F)(F)F)[C@@H]4C3)n2)n1 [Example 396, 2-N-methyl-2-N-phenyl-6-{5-[6-[(3,3,3-trifluoropropoxy)methyl]-3-azabicyclo[3.1.0]hexan-3-yl]-1,2,4-oxadiazol-3-yl}-1,3,5-triazine-2,4-diamine]
4930 nM	CN(c1ccccc1)c1nc(N)nc(-c2noc(-c3ncccc3C(=O)NCC(F)(F)F)n2)n1 [Example 381, 2-(3-{4-amino-6-[methyl(phenyl)amino]-1,3,5-triazin-2-yl}-1,2,4-oxadiazol-5-yl)-N-(2,2,2-trifluoroethyl)pyridine-3-carboxamide]
4590 nM	CN(c1ccccc1)c1nc(N)nc(-c2noc(N3CC(Oc4ccccn4)C3)n2)n1 [Example 499, 2-N-methyl-2-N-phenyl-6-{5-[3-(pyridin-2-yloxy)azetidin-1-yl]-1,2,4-oxadiazol-3-yl}-1,3,5-triazine-2,4-diamine]
24 nM	CN(c1ccccc1)c1nc(N)nc(-c2noc(-c3ccc(OCCC(F)(F)F)nc3)n2)n1 [Example 359, 2-N-methyl-2-N-phenyl-6-{5-[6-(3,3,3-trifluoropropoxy)pyridin-3-yl]-1,2,4-oxadiazol-3-yl}-1,3,5-triazine-2,4-diamine]
1420 nM	CN(c1ccccc1)c1nc(N)nc(-c2noc(N3C[C@@H]4[C@@H](COCC(F)(F)F)[C@@H]4C3)n2)n1 [Example 387, 2-N-methyl-2-N-phenyl-6-{5-[6-[(2,2,2-trifluoroethoxy)methyl]-3-azabicyclo[3.1.0]hexan-3-yl]-1,2,4-oxadiazol-3-yl}-1,3,5-triazine-2,4-diamine]
61 nM	CN(c1ccccc1)c1nc(N)nc(-c2noc(-c3ccc(SCC4CC4)nc3)n2)n1 [Example 452, 6-(5-{6-[(cyclopropylmethyl)sulfanyl]pyridin-3-yl}-1,2,4-oxadiazol-3-yl)-2-N-methyl-2-N-phenyl-1,3,5-triazine-2,4-diamine]
1040 nM	CN(c1ccccc1)c1nc(N)nc(-c2noc(C(=O)N3CCC(SCC(F)(F)F)CC3)n2)n1 [Example 465, 2-N-methyl-2-N-phenyl-6-[5-({4-[(2,2,2-trifluoroethyl)sulfanyl]piperidin-1-yl}carbonyl)-1,2,4-oxadiazol-3-yl]-1,3,5-triazine-2,4-diamine]
1290 nM	CN(c1ccccc1)c1nc(N)nc(-c2noc(C(=O)N3C[C@@H]4[C@@H](COCCC(F)(F)F)[C@@H]4C3)n2)n1 [Example 403, 2-N-methyl-2-N-phenyl-6-(5-{[-6-[(3,3,3-trifluoropropoxy)methyl]-3-azabicyclo[3.1.0]hexan-3-yl]carbonyl}-1,2,4-oxadiazol-3-yl)-1,3,5-triazine-2,4-diamine]

same assay, conditions: marker c: Automated patch clamp data; read-out: Nav 1.7 activity

IC50	SMILES
67 nM	CCN(c1ccccc1)c1nc(N)nc(-c2noc(-c3c(F)cccc3OC)n2)n1 [Example 191, 2-N-ethyl-6-[5-(2-fluoro-6-methoxyphenyl)-1,2,4-oxadiazol-3-yl]-2-N-phenyl-1,3,5-triazine-2,4-diamine]
977 nM	CN(c1ccccc1)c1nc(N)nc(-c2noc(-c3ccc(C(=O)N4CCOCC4)s3)n2)n1 [Example 79, (5-{3-[4-Amino-6-(methyl-phenyl-amino)-[1,3,5]triazin-2-yl]-[1,2,4]oxadiazol-5-yl}-thiophen-2-yl)-morpholin-4-yl-methanone]
144 nM	COc1cccc(F)c1-c1nc(-c2nc(N)nc(N(C)c3cccc(C)c3)n2)no1 [Example 185, 6-[5-(2-fluoro-6-methoxyphenyl)-1,2,4-oxadiazol-3-yl]-2-N-methyl-2-N-(3-methylphenyl)-1,3,5-triazine-2,4-diamine]
1480 nM	FC(F)(F)CNc1nc(Nc2ccccc2)nc(-c2noc(-c3ccc(OCC(F)(F)F)nc3)n2)n1 [Example 151, 2-N-phenyl-6-{5-[6-(2,2,2-trifluoroethoxy)pyridin-3-yl]-1,2,4-oxadiazol-3-yl}-4-N-(2,2,2-trifluoroethyl)-1,3,5-triazine-2,4-diamine]
260 nM	CN(c1ccccc1)c1nc(N)nc(-c2noc(-c3ccccc3C#N)n2)n1 [Example 80, 2-{3-[4-Amino-6-(methyl-phenyl-amino)-[1,3,5]triazin-2-yl]-[1,2,4]oxadiazol-5-yl}-benzonitrile]
83 nM	CCN(c1ccccc1)c1nc(N)nc(-c2noc(-c3ccc(F)cc3Cl)n2)n1 [Example 193, 6-[5-(2-chloro-4-fluorophenyl)-1,2,4-oxadiazol-3-yl]-2-N-ethyl-2-N-phenyl-1,3,5-triazine-2,4-diamine]
855 nM	Cc1cc(-c2nc(-c3nc(N)nc(N(C)c4ccccc4)n3)no2)n[nH]1 [Example 58, N-Methyl-6-[5-(5-methyl-1H-pyrazol-3-yl)-[1,2,4]oxadiazol-3-yl]-N-phenyl-[1,3,5]triazine-2,4-diamine]
1920 nM	COc1ccc(-c2nc(-c3nc(N)nc(N(C)c4ccccc4)n3)no2)cn1 [Example 47, 6-[5-(6-Methoxy-pyridin-3-yl)-[1,2,4]oxadiazol-3-yl]-N-methyl-N-phenyl-[1,3,5]triazine-2,4-diamine]
1080 nM	CN(c1ccccc1)c1nc(N)nc(-c2noc(C3CCN(S(=O)(=O)c4ccccc4)CC3)n2)n1 [Example 172, 6-{5-[1-(benzenesulfonyl)piperidin-4-yl]-1,2,4-oxadiazol-3-yl}-2-N-methyl-2-N-phenyl-1,3,5-triazine-2,4-diamine]
